Experimental data from patent US20050182252A1, “Novel 2'-C-methyl nucleoside derivatives” (priority 2004, published 2005).
Structures can show the parent of a compound that is named as a salt.

Assays:
HCV = test: HCV-infected human liver slice assay (HCV RNA in culture medium); format: cell-based; conditions: for Log10 decrease in viral RNA from control at 48-72 h: HCV RNA in culture medium of HCV-infected human liver slices
Description: Inhibition of HCV replication in human liver tissue was evaluated using the following assay.
Liver from a brain-dead HCV antibody-positive human patient was perfused with ice-cold Viaspan (Dupont Pharmaceutical) preservation solution and received on ice in Viaspan.
Precision-cut liver slices of ˜200-250 μm thickness and […] diameter were prepared and cultured in Waymouth's cell culture medium (Gibco, Inc.) that was supplemented with 10% fetal bovine serum and 10 mL/L Fungi-Bact at 37° C., and gassed with carbogen (95% O2, 5% CO2) at 0.75 liters/min. Tissue slices were maintained in culture for 72 h. Cell culture medium containing test compound in solution was changed on a daily basis.
At appropriate times of liver slice incubation, liver slices and medium were collected for analysis of HCV RNA (tissue and medium) and nucleotide levels (NTP). All collected media and tissue slices were maintained in liquid N2 until analysis.
Medium and tissue samples were analyzed for HCV RNA levels according to published procedures (Bonacini et. al., 1999) which utilize an automated, multicycle, polymerase chain reaction (PCR)-based technique. This assay has a lower limit of detection for HCV RNA of 100 viral copies/ml.

[1] = set-up: species or system C57BL/6 mice; conditions: in vivo; for Liver NTP AUC: mouse
Description: The liver specificity of the compound 19 prodrug was compared relative to the parent nucleoside, 2′-C-methylguanosine, and for compound 21.1 prodrug relative to its parent nucleoside, 2′-C-methyladenosine, by measuring the generation of NTP in the liver compared to nucleoside in the plasma.
Compound 19 or 2′-C-methylguanosine were administered intraperitoneally to C57BL/6 mice at a dose of 30 mg/kg based on nucleoside equivalents (30 mg/kg 2′-C-methylguanosine and 53.27 mg/kg compound 19). Compound 21.1 or 2′-C-methyladenosine were administered intravenously to C57BL/6 mice at dose of about 5.5 mg/kg nucleoside equivalents (5.5 mg/kg 2′-C-methyladenosine and 10 mg/kg compound 21.1). Plasma concentrations of 2′-C-methylguanosine, compound 19, 2′-C-methyladenosine, and compound 21.1 were determined by HPLC-UV and the liver concentrations of the 5′-triphosphate of 2′-C-methylguanosine and 2′-C-methyladenosine were measured by LC-MS using the standard ion-pairing chromatography method for triphosphate as described in Example E. Conventional SAX HPLC-UV could not differentiate between endogenous GTP and 2′-C-methylguanosine triphosphate. Since an authentic standard of 2′-C-methylguanosine triphosphate was not available, the liver concentrations of the nucleotide were approximated as described in Example E.

Compound | melting point | further results
C[C@@]1(O)[C@H](O)[C@@H](CO)O[C@H]1n1cnc2c(=O)[nH]c(N)nc21 [2′-C-methylguanosine, reference compound] | – | Log10 decrease in viral RNA from control at 48-72 h (HCV; 0.25 μM compound): 0.51 Log10; Log10 decrease in viral RNA from control at 48-72 h (HCV; 2.5 μM compound): 1.74 Log10; Log10 decrease in viral RNA from control at 48-72 h (HCV; 25 μM compound): 1.48 Log10; HCV RNA levels in the liver slice culture media versus control, untreated slices (HCV; in words, treatment for 72 h): decreased; Liver Targeting Index (Liver/Plasma) ([1]; C57BL/6, mouse, ip, 30 mg/kg): 0.87
C[C@@]1(O)[C@H](O)[C@@H](CO)O[C@H]1n1cnc2c(N)ncnc21 [2′-C-methyladenosine, reference compound] | – | Plasma Nucleoside AUC ([1]; C57BL/6, mouse, iv, 5.5 mg/kg): 26.8 µM·h; Liver NTP AUC ([1]; iv, 5.5 mg/kg): 119 nmol·h/g
C[C@@]1(O)[C@H](O)[C@@H](COP2(=O)OCC[C@@H](c3cccc(Cl)c3)O2)O[C@H]1n1cnc2c(N)ncnc21 (stereo partly drawn) [Compound 21.1, cis-5′-O-[4-(S)-(3-chlorophenyl)-2-oxo-1,3,2-dioxaphosphorinan-2-yl]-2′-C-beta-methyl-adenosine trifluoroacetic acid salt] | – | Liver NTP AUC ([1]; iv, 5.5 mg/kg): 502 nmol·h/g
C[C@@]1(O)[C@H](O)[C@@H](COP2(=O)OCC[C@H](c3ccccn3)O2)O[C@H]1n1ccc2c(N)ncnc21 (stereo partly drawn) (as salt: trifluoroacetic acid salt) [Compound 16.33, 4-amino-7-(cis-5′-O-14-(pyridin-2-yl-2-oxo-1,3,2-dioxaphosphorinan-2-yl]-2′-C-methyl-beta-D-ribofuranosyl)-7H-pyrrolo[2,3-d]pyrimidine trifluoroacetic acid salt] | 88 to 90 °C | –
C[C@@]1(O)[C@H](O)[C@@H](CO[P@@]2(=O)OCC[C@@H](c3ccccc3)O2)O[C@H]1n1ccc2c(N)ncnc21 [Compound 16.12, 4-amino-7-(cis-5′-O-[4-(S)-phenyl-2-oxo-1,3,2-dioxaphosphorinan-2-y]-2′-C-methyl-beta-D-ribofuranosyl)-7H-pyrrolo[2,3-d]pyrimidine] | 115 to 118 °C | –
CC1(C)C[C@H](c2ccccc2)OP(=O)(OC[C@H]2O[C@@H](n3ccc4c(N)ncnc43)[C@](C)(O)[C@@H]2O)O1 (stereo partly drawn) [Compound 16.4, 4-amino-7-(cis-5′-O-[6,6-dimethyl-4-phenyl-2-oxo-1,3,2-dioxaphosphorinan-2-yl]-2′-C-methyl-beta-D-ribofuranosyl)-7H-pyrrolo[2,3-d]pyrimidine] | 140 to 142 °C | –
C[C@@]1(O)[C@H](O)[C@@H](COP2(=O)OCC[C@@H](c3ccccc3Br)O2)O[C@H]1n1ccc2c(N)ncnc21 (stereo partly drawn) [Compound 16.10, 4-amino-7-(cis-5′-O-[4-(2-bromophenyl)-2-oxo-1,3,2-dioxaphosphorinan-2-yl]-2′-C-methyl-beta-D-ribofuranosyl)-7H-pyrrolo[2,3-d]pyrimidine] | 132 to 135 °C | –
COc1ccc(F)c([C@H]2CCOP(=O)(OC[C@H]3O[C@@H](n4ccc5c(N)ncnc54)[C@](C)(O)[C@@H]3O)O2)c1 (stereo partly drawn) (as salt: trifluoroacetic acid salt) [Compound 16.37, 4-amino-7-(cis-5′-O-[4-(2-fluoro-5-methoxyphenyl)-2-oxo-1,3,2-dioxaphosphorinan-2-yl]-2′-C-methyl-beta-D-ribofuranosyl)-7H-pyrrolo[2,3-d]pyrimidine trifluoroacetic acid salt] | 80 to 85 °C | –
C[C@@]1(O)[C@H](O)[C@@H](COP2(=O)OCC[C@H](c3ccc(Cl)cc3)O2)O[C@H]1n1ccc2c(N)ncnc21 (stereo partly drawn) (as salt: trifluoroacetic acid salt) [Compound 16.35, 4-amino-7-(cis-5′-O-[4-(4-chlorophenyl-2-oxo-1,3,2-dioxaphosphorinan-2-yl]-2′-C-methyl-beta-D-ribofuranosyl)-7H-pyrrolo[2,3-d]pyrimidinetrifluoroacetic acid salt] | 182 to 184 °C | –
C[C@@]1(O)[C@H](O)[C@@H](COP2(=O)OCC[C@H](c3ccc(F)cc3Cl)O2)O[C@H]1n1ccc2c(N)ncnc21 (stereo partly drawn) (as salt: trifluoroacetic acid salt) [Compound 16.38, 4-amino-7-(cis-5′-O-[4-(2-chloro-4-fluorophenyl)-2-oxo-1,3,2-dioxaphosphorinan-2-yl]-2′-C-methyl-beta-D-ribofuranosyl)-7H-pyrrolo[2,3-d]pyrimidine trifluoroacetic acid salt] | 138 to 141 °C | –
C[C@@]1(O)[C@H](O)[C@@H](COP2(=O)OCC[C@H](c3cccnc3)O2)O[C@H]1n1ccc2c(N)ncnc21 (stereo partly drawn) [Compound 16.32] | 134 to 138 °C | –
C[C@@]1(O)[C@H](O)[C@@H](CO[P@@]2(=O)OCC[C@@H](c3cccc(Cl)c3)O2)O[C@H]1n1ccc2c(N)ncnc21 [Compound 16.5, 4-amino-7-(cis-5′-[4-(S)-(3-chlorophenyl)-2-oxo-1,3,2-dioxaphosphorinan-2-yl]-2′-C-methyl-beta-D-ribofuranosyl)-7H-pyrrolo[2,3-d]pyrimidine] | 135 to 138 °C | –
C[C@@]1(O)[C@H](O)[C@@H](COP2(=O)OCC[C@H](c3ccccc3C(F)(F)F)O2)O[C@H]1n1ccc2c(N)ncnc21 (stereo partly drawn) [Compound 16.29, 4-amino-7-(cis-5′-O-[4-(2-trifluoromethylphenyl)-2-oxo-4,3,2-dioxaphosphorinan-2-yl]-2′-C-methyl-beta-D-ribofuranosyl)-7H-pyrrolo[2,3-d]pyrimidine] | 115 to 120 °C | –

More lines, main results first:

melting point | Compound | further results
187 to 190 °C | C[C@@]1(O)[C@H](O)[C@@H](COP2(=O)OC[C@H](c3ccccc3)[C@H](c3ccccc3)O2)O[C@H]1n1ccc2c(=O)[nH]c(N)nc21 (stereo partly drawn) (as salt: trifluoroacetic acid salt) [Compound 17.17, 2-amino-7-(cis-5′-[4,5-cis-diphenyl-2-oxo-1,3,2-dioxaphosphorinan-2-yl]-2-C methyl-beta-D-ribofuranosyl)-7H-pyrrolo[2,3-d]pyrimidin-4(3H)-one trifluoroacetic acid salt] | –
108 to 110 °C | C[C@@]1(O)[C@H](O)[C@@H](COP2(=O)OCC[C@@H](c3cccc(Br)c3)O2)O[C@H]1n1cnc2c(N)ncnc21 (stereo partly drawn) [Compound 21.6, cis-5′-O-[4-(3-bromophenyl)-2-oxo-1,3,2-dioxaphosphorinan-2-yl]-2′-C-beta-methyl adenosine] | –
175 °C | C[C@@]1(O)[C@H](O)[C@@H](COP2(=O)OCC[C@@H](c3cccc(Cl)c3)O2)O[C@H]1n1ccc2c(=O)[nH]c(N)nc21 (stereo partly drawn) [Compound 17.2, 2-amino-7-(cis-5-O-[4-(S)-(3-chlorophenyl)-2-oxo-1,3,2-dioxaphosphorinan-2-yl]-2′-C methyl-beta-D-ribofuranosyl)-7H-pyrrolo[2,3-d]pyrimidin-4(3H)-one] | –
125 to 128 °C | C[C@@]1(O)[C@H](O)[C@@H](COP2(=O)OCC[C@@H](c3cccc(Cl)c3)O2)O[C@H]1n1cnc2c(N)ncnc21 (stereo partly drawn) (as salt: trifluoroacetic acid salt) [Compound 21.1, cis-5′-O-[4-(S)-(3-chlorophenyl)-2-oxo-1,3,2-dioxaphosphorinan-2-yl]-2′-C-beta-methyl-adenosine trifluoroacetic acid salt] | –
120 to 123 °C | C[C@@]1(O)[C@H](O)[C@@H](COP2(=O)OCC[C@@H](c3cc(F)cc(F)c3)O2)O[C@H]1n1cnc2c(N)ncnc21 (stereo partly drawn) [Compound 21.4, cis-5′-O-[4-(3,5-difluorophenyl)-2-oxo-1,3,2-dioxaphosphorinan-2-yl]-2′-C-beta-methyl-adenosine] | –
185 to 187 °C | C[C@@]1(O)[C@H](O)[C@@H](COP2(=O)OCC[C@@H](c3ccc(S(C)(=O)=O)cc3)O2)O[C@H]1n1cnc2c(N)ncnc21 (stereo partly drawn) (as salt: trifluoroacetic acid salt) [Compound 21.8, cis-5′-O-[4-(4-methylsulfonylphenyl)-2-oxo-1,3,2-dioxaphosphorinan-2-yl]-2′-C-beta-methyl-adenosine trifluoroacetic acid salt] | –
